Data on ten compounds can be found in ChEMBL document CHEMBL1201862, “PubChem BioAssay data set” (2004).

Test systems include HL-60; SNB-19; KM12; HT-29; SNB-75; CCRF-CEM; A498; IGROV-1; SF-268; SF-295; HOP-92; MOLT-4; U-251; EKVX; OVCAR-3; SF-539.
What all share (assay): inhibition of tumour cell growth, NCI panel, 48 h

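48-hour exposure; five concentrations; linearly interpolated endpoints. At the GI50, growth is halved.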 The source made the active and inactive calls. Cut-off read from the data, not from the text of the source: active = GI50 up to about 1.1 µM and inactive = higher. A value given as a limit tells only on which side of the number the result lay.

For `CCOC(=O)NC(=O)c1cn(CCN2CCN(C(=O)CCCCCCCCCCNc3ncnc4c3ncn4C3OC(CO)C(O)C3O)CC2)c(=O)[nH]c1=O` (stereo not given), the GI50 with HL-60, with SNB-19, in the experiment with KM12, in the experiment with HT-29, in the experiment on SNB-75 and in the experiment with CCRF-CEM was > 100 µM (inactive) each time. Moreover, the GI50 in the experiment on A498 was > 100 µM (inactive); in the experiment on IGROV-1, > 100 µM (inactive); with SF-268, > 100 µM (inactive); in the experiment with SF-295, > 100 µM (inactive); in the experiment with HOP-92, 70.3 µM (inactive); in the experiment with MOLT-4, > 100 µM (inactive). Besides, in the experiment on U-251, the GI50 was > 100 µM (inactive).
Turning to `CCOC(=O)Cn1c(=O)n(C)c(=O)c2c1ncn2Cc1ccccc1`, the GI50 in the experiment on SNB-19, with KM12, in the experiment on EKVX, in the experiment on OVCAR-3, with HT-29 and with SNB-75 was > 100 µM (inactive) each time. Besides, the GI50 in the experiment on SF-539, in the experiment on CCRF-CEM, with A498, with IGROV-1, in the experiment on SF-268 and in the experiment on HOP-92 was > 100 µM (inactive) in each case. The GI50 with MOLT-4 and in the experiment on U-251 was > 100 µM (inactive) each time.
Take `C=CCCc1cc(OC)ccc1CN(C)C(C)(C)CO`: the GI50 with SNB-19 is > 100 µM (inactive); with KM12, > 100 µM (inactive); in the experiment on EKVX it was > 100 µM (inactive); with OVCAR-3, > 100 µM (inactive); in the experiment on HT-29 it was > 100 µM (inactive); in the experiment with SNB-75 it was 85.7 µM (inactive). Moreover, the GI50 with SF-539, in the experiment on CCRF-CEM, in the experiment on A498, with IGROV-1, in the experiment on SF-268 and in the experiment on SF-295 was > 100 µM (inactive) throughout. The GI50 in the experiment on HOP-92 and with U-251 was > 100 µM (inactive) in each case.
On to `BrC12c3ccccc3Sc3ccccc3C1(Br)c1ccccc12` (stereo not given), for which the GI50 is 5.21 µM (inactive) in the experiment with HL-60; 32.7 µM (inactive) in the experiment with SNB-19; 19.9 µM (inactive) in the experiment on KM12; 34.8 µM (inactive) in the experiment on HT-29; 27.3 µM (inactive) in the experiment with SNB-75; 18.3 µM (inactive) in the experiment with SF-539. The GI50 is 4.93 µM (inactive) in the experiment on CCRF-CEM; 22.9 µM (inactive) in the experiment on A498; 27 µM (inactive) in the experiment on IGROV-1; 32.4 µM (inactive) with SF-268; 23.7 µM (inactive) in the experiment on SF-295; 19.8 µM (inactive) with HOP-92. In addition, the GI50 in the experiment with MOLT-4 is 10.7 µM (inactive); in the experiment on U-251, 17.7 µM (inactive).
With `Sc1nnc(COc2ccc(Cl)cc2)[nH]1`, the GI50 with HL-60, in the experiment with SNB-19, with KM12, in the experiment on OVCAR-3, with HT-29 and in the experiment with SNB-75 was > 100 µM (inactive) each time. Besides, the GI50 with SF-539, in the experiment on CCRF-CEM, with A498, with IGROV-1, with SF-268 and in the experiment with SF-295 was > 100 µM (inactive) each time. Further, the GI50 in the experiment on HOP-92, with MOLT-4 and with U-251 was > 100 µM (inactive) each time.
Turning to `S=c1[nH]c2ccc(Br)cc2c(=S)n1-c1ccccc1`, the GI50 is 5.85 µM (inactive) with SNB-19; 16.9 µM (inactive) in the experiment on KM12; 37.2 µM (inactive) in the experiment with EKVX; 20.7 µM (inactive) in the experiment on OVCAR-3; 21.9 µM (inactive) in the experiment on HT-29; 34.2 µM (inactive) in the experiment with SNB-75. Besides, the GI50 in the experiment on SF-539 is 14.8 µM (inactive); in the experiment with CCRF-CEM, 11.8 µM (inactive); in the experiment on A498, 32.4 µM (inactive); with IGROV-1 it was 20.6 µM (inactive); in the experiment with SF-268, 11 µM (inactive); in the experiment with SF-295, 16.9 µM (inactive). Further, the GI50 was 20 µM (inactive) in the experiment on HOP-92 and 6.58 µM (inactive) in the experiment on U-251.
In the case of `CC1=NN(C(=O)c2ccc(Cl)cc2)C(=O)/C1=C/c1ccc(Cl)cc1`, the GI50 with HL-60, in the experiment with SNB-19, in the experiment with KM12, in the experiment with EKVX, in the experiment on OVCAR-3 and with HT-29 was > 100 µM (inactive) in each case. Further, the GI50 in the experiment with SF-539, in the experiment on CCRF-CEM, with A498, in the experiment with IGROV-1, with SF-268 and in the experiment on SF-295 was > 100 µM (inactive) each time. For the same compound, the GI50 in the experiment on HOP-92, with MOLT-4 and in the experiment with U-251 was > 100 µM (inactive) throughout.
Consider `CCN(CC)CCNC(=O)c1cccc2nc3ccccc3nc12`, for which the GI50 with SNB-19 was 21.2 µM (inactive); with KM12, 10.3 µM (inactive); with EKVX it was 23.4 µM (inactive); in the experiment on OVCAR-3, 8.34 µM (inactive); with HT-29 it was 4.55 µM (inactive); in the experiment with SNB-75, > 36.8 µM (inactive). Moreover, the GI50 with SF-539 was 8.45 µM (inactive); with A498, 11.7 µM (inactive); with IGROV-1, 38.3 µM (inactive); in the experiment with SF-268 it was 0.318 µM (active); in the experiment on SF-295, 11 µM (inactive); in the experiment with HOP-92, 38.4 µM (inactive). Also, the figures for the GI50 with MOLT-4 and in the experiment on U-251 were 4.91 µM (inactive) and 16.9 µM (inactive), respectively.
Take `CC1OC(=O)N(CCCC=C2SCCCS2)C1=O` (stereo not given): the GI50 in the experiment with SNB-19, with KM12, in the experiment with EKVX, with OVCAR-3, with HT-29 and in the experiment on SNB-75 was > 100 µM (inactive) in each case. Further, the GI50 in the experiment with SF-539, in the experiment on CCRF-CEM, in the experiment on A498, in the experiment with IGROV-1, in the experiment on SF-268 and in the experiment with SF-295 was > 100 µM (inactive) throughout. The GI50 in the experiment on HOP-92, in the experiment on MOLT-4 and in the experiment with U-251 was > 100 µM (inactive) in each case.
As for `Cn1c2c(c3ccccc31)CCN(CCCN1CCN(c3cccc(Cl)c3)CC1)C2=O`, the GI50 with HL-60 is 6.85 µM (inactive); in the experiment on SNB-19, 27.4 µM (inactive); in the experiment with EKVX, 41.7 µM (inactive); with HT-29 it was 12.5 µM (inactive); with SF-539, 18.1 µM (inactive); in the experiment on CCRF-CEM, 31.5 µM (inactive). In addition, the GI50 with A498 was 3.05 µM (inactive); with IGROV-1, 26.4 µM (inactive); in the experiment with SF-268 it was 15.6 µM (inactive); in the experiment on HOP-92 it was 3.91 µM (inactive); with MOLT-4, 11.6 µM (inactive); in the experiment on U-251 it was 3.27 µM (inactive).
